Laboratory results reported in patent US20040010001A1, “Methods and compositions for modulating cell proliferation and cell death” (priority 1999, published 2004).

Assays:
[1] = test system: human PC3 lung tumors; assay: Lung tumors established by direct injection of PC3 cells into the lungs of immunodeficient mice; format: in vivo; conditions: doxorubicin three doses of 10 mg/kg, suramin three doses of 20 mg/kg, day 12
Procedure: Animal care was in accordance with the guidelines at the Ohio State University. Several human tumor models were used, including (a) lung metastases derived from intravenous injection of human PC3-LN tumor cells, (b) lung tumors derived from direct injection of human PC3 cells in lungs, and (c) subcutaneously implanted PC3 tumors. Four studies were performed. In all studies, drug treatment was administered intravenously via a tail vein, after the tumor was established. The first and second studies used the intravenous PC3-LN lung metastasis model. Briefly, human PC3-LN cells ([…] in 0.1 ml physiologic saline) were injected intravenously, via a tail vein, into immunodeficient mice. […] Treatment was given twice weekly for three weeks. […] The lung surface area (counted as number of pixel) occupied by the tumor was calculated as a fraction of the total lung area, using Adobe PhotoShop. The number of tumor cells in residual tumors and the fraction of apoptotic cells in each tumor were also determined microscopically. […] This was determined by counting the number of non-apoptotic tumor cells in randomly selected microscopic fields at 400× magnification. […] In the case of combination therapy where fewer than 5 tumor nodules remained per animal, all residual cells (between 20 to 600 cells per animal) were counted.

[2] = test system: Human prostate PC3 tumor cells; assay: Intracellular drug accumulation with or without CM or r-bFGF; conditions: unchanged with or without CM or r-bFGF; 1 nM paclitaxel, 50 nM doxorubicin, 500 nM 5-fluorouracil; 4 hours
[3] = test system: rat MAT-LyLu tumor cells; assay: as above; conditions: unchanged with or without CM or r-bFGF; 10 nM paclitaxel, 100 nM doxorubicin, 500 nM 5-fluorouracil
[4] = test system: bladder, breast, head and neck, ovarian and prostate tumors from human patients; assay: Paclitaxel in histocultures of tumors obtained from human patients; format: cell-based; conditions: 96 tumors; bladder 2 hours, remaining tumors 96 hours
Procedure: The third study examined the relationship between the levels of aFGF and bFGF in human tumors and tumor sensitivity to anticancer agents. This study was performed using 96 tumors obtained from human patients, including include bladder, breast, head and neck, ovarian and prostate tumors. Paclitaxel was used as the model drug. […] The drug-induced antiproliferation was measured by inhibition of DNA precursor incorporation, and apoptosis was measured by morphological changes and by labeling of nicked DNA. aFGF, bFGF and other proteins known to contribute to drug resistance (i.e. the mdr1 p-glycoprotein, p53 and bcl-2) were detected by immunohistochemical staining.

COc1cccc2c1C(=O)c1c(O)c3c(c(O)c1C2=O)C[C@@](O)(C(=O)CO)C[C@@H]3O[C@H]1C[C@H](N)[C@H](O)[C@H](C)O1 [Doxorubicin]
tumor-free animals [1]: 25%
plateau intracellular concentration [2]: 40 pmol/10^6 cells
plateau intracellular concentration [3]: 80 pmol/10^6 cells

CC(=O)O[C@H]1C(=O)[C@@]2(C)[C@H]([C@H](OC(=O)c3ccccc3)[C@]3(O)C[C@H](OC(=O)[C@H](O)[C@@H](NC(=O)c4ccccc4)c4ccccc4)C(C)=C1C3(C)C)[C@]1(OC(C)=O)CO[C@@H]1C[C@@H]2O [Paclitaxel]
tumors in which antiproliferation was produced [4]: 84%
tumors in which apoptosis was induced [4]: 96%
